According to patent publication US20240246950A1, “Anilino-Pyrazole Derivatives, Compositions and Methods Thereof” (Ensem Therapeutics, priority 2022, published 2024):

Assays:
CDK1/cyclinB = CDK1/cyclinB (Homo sapiens, UniProt P06493); assay: In vitro kinase TR-FRET assay CDK1/cyclinB; assay type: biochemical; conditions: enzyme 0.3 nM, ATP 56 μM
Method in brief: (§1)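 Enzymes at 3 nM (CDK2/CycA2), 0.6 nM (CDK2/CycE1), 0.3 nM (CDK1/cyclinB), 0.6 nM (GSK3β) with ATP at 27, 82, 56, 7.6 μM respectively, 50 nM ULight-4E-BP1 peptide, HEPES pH7.5; 10-point 3-fold dilutions. 1 h reaction at room temperature; Eu-anti-phospho-4E-BP1 TR-FRET (665/615 nm) read; IC50 from dose-response curves.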

GSK3β = GSK3β (Homo sapiens, UniProt P49841); assay: In vitro kinase TR-FRET assay GSK3β; assay type: biochemical; conditions: enzyme 0.6 nM, ATP 7.6 μM
Method in brief: as §1

OVCAR3 = assay: Cell proliferation (CyQUANT) OVCAR3; assay type: cell-based; conditions: Homo sapiens, OVCAR-3, 168 h, OVCAR3, 7 days, read-out: Anti-proliferation assay: IC50 (nM) [Cell Line: OVCAR3]
Experimental: (§2) Cancer cell lines, namely, OVCAR3, TOV21G were seeded onto 96 well cell culture plates at a density of 2500, 1000 or 3000 cells/well, respectively and cultured overnight. Cells treated with test compounds at 3-fold dose titration for 7 days at maximum final DMSO concentration of 0.01%. The CyQUANT® Cell Proliferation Assay, a highly sensitive fluorescence-based method for quantifying cells and assessing cell proliferation and cytotoxicity was employed, following manufacturer's procedure (ThermnoFisher, Cataloge #C35012). Plates were scanned with a laser-based Acumen Cellistra instrument by TTP LabTech at Ex/Em 480/520 nm. % Inhibition is calculated based on DMSO control wells on the same plate (ie, DMSO wells have 100% growth and 0% growth inhibition).

CDK2/CycE1 = CDK2/CycE1 (Homo sapiens, UniProt P24941); assay: In vitro kinase TR-FRET assay CDK2/CycE1; assay type: biochemical; conditions: enzyme 0.6 nM, ATP 82 μM, read-out: CDK2 cyclinE1 activity assay: IC50
Method in brief: as §1

TOV21G = assay: Cell proliferation (CyQUANT) TOV21G; assay type: cell-based; conditions: Homo sapiens, 168 h, 7 days, read-out: Anti-proliferation assay: IC50 (nM) [Cell Line: TOV21G]
Experimental: as §2

CDK2/CycA2 = CDK2/CycA2 (Homo sapiens, UniProt P24941); assay: In vitro kinase TR-FRET assay CDK2/CycA2; assay type: biochemical; conditions: enzyme 3 nM, ATP 27 μM, read-out: CDK2 cyclinA2 activity assay: IC50
Method in brief: as §1

Chain of CDK1/cyclinB (P06493 whole entry): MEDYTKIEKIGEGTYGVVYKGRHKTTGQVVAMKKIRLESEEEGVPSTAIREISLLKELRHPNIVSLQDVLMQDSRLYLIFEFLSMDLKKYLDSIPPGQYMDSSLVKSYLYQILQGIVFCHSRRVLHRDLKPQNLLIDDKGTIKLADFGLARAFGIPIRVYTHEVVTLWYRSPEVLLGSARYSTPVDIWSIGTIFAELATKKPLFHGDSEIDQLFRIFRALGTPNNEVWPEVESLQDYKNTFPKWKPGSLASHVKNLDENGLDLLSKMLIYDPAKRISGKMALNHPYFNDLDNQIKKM
Chain of CDK1/cyclinB (P14635 whole entry partner): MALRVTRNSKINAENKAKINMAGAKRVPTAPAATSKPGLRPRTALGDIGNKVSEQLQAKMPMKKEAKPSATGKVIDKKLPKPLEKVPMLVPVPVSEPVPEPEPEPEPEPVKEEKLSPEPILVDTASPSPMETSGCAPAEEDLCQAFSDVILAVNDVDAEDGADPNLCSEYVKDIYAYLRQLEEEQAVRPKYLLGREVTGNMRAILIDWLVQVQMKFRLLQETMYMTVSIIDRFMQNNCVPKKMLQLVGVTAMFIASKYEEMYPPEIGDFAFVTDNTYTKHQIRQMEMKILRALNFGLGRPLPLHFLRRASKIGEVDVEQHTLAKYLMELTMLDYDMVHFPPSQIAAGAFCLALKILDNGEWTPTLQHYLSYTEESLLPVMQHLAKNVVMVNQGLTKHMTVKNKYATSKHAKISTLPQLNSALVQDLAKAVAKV
Chain of GSK3β (P49841 whole entry, species assumed): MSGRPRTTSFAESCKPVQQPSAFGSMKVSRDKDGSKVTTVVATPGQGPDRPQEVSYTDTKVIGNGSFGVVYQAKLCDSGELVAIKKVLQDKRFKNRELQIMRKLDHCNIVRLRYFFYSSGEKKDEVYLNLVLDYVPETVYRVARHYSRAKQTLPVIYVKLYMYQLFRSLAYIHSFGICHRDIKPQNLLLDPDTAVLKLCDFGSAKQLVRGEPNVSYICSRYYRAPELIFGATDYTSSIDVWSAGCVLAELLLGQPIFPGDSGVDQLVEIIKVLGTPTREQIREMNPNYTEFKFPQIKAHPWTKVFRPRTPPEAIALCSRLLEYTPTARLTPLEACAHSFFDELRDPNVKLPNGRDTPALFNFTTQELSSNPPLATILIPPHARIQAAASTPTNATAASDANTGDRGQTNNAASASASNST

| SMILES | IC50 (CDK1/cyclinB) | IC50 (GSK3β) | IC50 (OVCAR3) | IC50 (CDK2/CycE1) | IC50 (TOV21G) | IC50 (CDK2/CycA2) |
| --- | --- | --- | --- | --- | --- | --- |
| CC(C)NC(=O)O[C@H]1CC[C@@H](c2cc(Nc3ccc4c(c3)S(=O)(=O)NC4)n[nH]2)CC1 [Example 37, (1s,4s)-4-(3-((1,1-dioxido-2,3-dihydrobenzo[d]isothiazol-6-yl)amino)-1H-pyrazol-5-yl)cyclohexyl isopropylcarbamate] | 50 to 500 nM | > 1000 nM | ≥ 1000 nM | < 50 nM | ≥ 1000 nM | < 50 nM |
| CC(C)NC(=O)O[C@@H]1CC[C@H](c2cc(Nc3ccc4c(c3)NS(=O)(=O)C4)n[nH]2)C1 [Example 38, (1R,3S)-3-(3-((2,2-dioxido-1,3-dihydrobenzo[c]isothiazol-6-yl)amino)-1H-pyrazol-5-yl)cyclopentyl isopropylcarbamate] | < 50 nM | > 1000 nM | ≤ 500 nM | < 50 nM | ≥ 1000 nM | < 50 nM |
| CC(C)NC(=O)O[C@@H]1CC[C@H](c2cc(Nc3cccc4c3CS(=O)(=O)C4)n[nH]2)C1 [Example 40, (1R,3S)-3-{5-[(2,2-dioxo-1,3-dihydro-2λ^6-benzo[c]thiophen-4-yl)amino]-2H-pyrazol-3-yl}cyclopentyl (prop-2-ylamino)methanoate] | 50 to 500 nM | > 1000 nM | ≤ 500 nM | < 50 nM | ≥ 1000 nM | < 50 nM |
| CC(C)NC(=O)O[C@@H]1CC[C@H](c2cc(Nc3ccc4c(c3)N(C)S(=O)(=O)C4)n[nH]2)C1 [Example 41, (1R,3S)-3-{5-[(1-methyl-2,2-dioxo-1,3-dihydro-2X^6-benzo[2,1-c][1,2]thiazol-6-yl)amino]-2H-pyrazol-3-yl}cyclopentyl (prop-2-ylamino)methanoate] | 50 to 500 nM | 500 to 1000 nM | ≤ 500 nM | < 50 nM | ≤ 500 nM | < 50 nM |
| CC(C)NC(=O)O[C@@H]1CC[C@H](c2cc(Nc3ccc4c(c3)CS(=O)(=O)N4C)n[nH]2)C1 [Example 42, (1R,3S)-3-{5-[(1-methyl-2,2-dioxo-1,3-dihydro-2%6-benzo[c][1,2]thiazol-5-yl)amino]-2H-pyrazol-3-yl}cyclopentyl (prop-2-ylamino)methanoate] | 50 to 500 nM | 500 to 1000 nM | ≤ 500 nM | < 50 nM | ≤ 500 nM | < 50 nM |
| CC(C)NC(=O)O[C@@H]1CC[C@H](c2cc(Nc3ccc4c(c3)CS(=O)(=O)N4)n[nH]2)C1 [Example 45, (1R,3S)-3-{5-[(2,2-dioxo-1,3-dihydro-2λ6-benzo[c][1,2]thiazol-5-yl)amino]-2H-pyrazol-3-yl}cyclopentyl (prop-2-ylamino)methanoate] | < 50 nM | > 1000 nM | ≥ 1000 nM | < 50 nM | ≥ 1000 nM | < 50 nM |
| CC(C)NC(=O)O[C@@H]1CC[C@H](c2cc(Nc3cccc4c3CNS4(=O)=O)n[nH]2)C1 [Example 46, (1R,3S)-3-(3-((1,1-dioxido-2,3-dihydrobenzo[d]isothiazol-4-yl)amino)-1H-pyrazol-5-yl)cyclopentyl isopropylcarbamate] | 50 to 500 nM | 50 to 500 nM | ≤ 500 nM | < 50 nM | 500 to 1000 nM | < 50 nM |
| CC(C)NC(=O)O[C@@H]1CC[C@H](c2cc(Nc3cccc4c3CN(C)S4(=O)=O)n[nH]2)C1 [Example 47, (1R,3S)-3-(3-((2-methyl-1,1-dioxido-2,3-dihydrobenzo[d]isothiazol-4-yl)amino)-1H-pyrazol-5-yl)cyclopentyl isopropylcarbamate] | 50 to 500 nM | > 1000 nM | ≤ 500 nM | < 50 nM | ≤ 500 nM | < 50 nM |
| CC(C)NC(=O)O[C@H]1CC[C@@H](c2cc(Nc3cccc4c3CCS4(=O)=O)n[nH]2)CC1 [Example 49, (1s,4s)-4-(3-((1,1-dioxido-2,3-dihydrobenzo[b]thiophen-4-yl)amino)-1H-pyrazol-5-yl)cyclohexyl isopropylcarbamate] | 50 to 500 nM | > 1000 nM | ≤ 500 nM | < 50 nM | 500 to 1000 nM | < 50 nM |
| CC(C)NC(=O)O[C@@H]1CC[C@H](c2cc(Nc3ccc(F)c4c3CCS4(=O)=O)n[nH]2)C1 [Example 50, (1R,3S)-3-{5-[(7-fluoro-1,1-dioxo-2,3-dihydro-1λ^6-benzothiophen-4-yl)amino]-2H-pyrazol-3-yl}cyclopentyl (prop-2-ylamino)methanoate] | 50 to 500 nM | 50 to 500 nM | ≤ 500 nM | < 50 nM | ≤ 500 nM | < 50 nM |
| CC(C)NC(=O)O[C@@H]1CC[C@H](c2cc(Nc3ccc4c(n3)CCS4(=O)=O)n[nH]2)C1 [Example 55, (1R,3S)-3-(3-((1,1-dioxido-2,3-dihydrothieno[3,2-b]pyridin-5-yl)amino)-1H-pyrazol-5-yl)cyclopentyl isopropylcarbamate] | 50 to 500 nM | 50 to 500 nM | ≤ 500 nM | < 50 nM | ≥ 1000 nM | < 50 nM |
| CC(C)NC(=O)O[C@@H]1CC[C@H](c2cc(Nc3cccc4c3CCN(C)S4(=O)=O)[nH]n2)C1 [Example 56, (1R,3S)-3-{5-[(2-methyl-1,1-dioxo-3,4-dihydro-2H-1λ6-benzo[2,1-e][1,2]thiazin-5-yl)amino]-1H-pyrazol-3-yl}cyclopentyl (prop-2-ylamino)methanoate] | 50 to 500 nM | 50 to 500 nM | ≤ 500 nM | < 50 nM | ≥ 1000 nM | < 50 nM |
| CC(C)NC(=O)O[C@@H]1CC[C@H](c2cc(Nc3nccc4c3CCS4(=O)=O)n[nH]2)C1 [Example 57, (1R,3S)-3-{5-[(1,1-dioxo-2,3-dihydro-1λ^6-thieno[3,2-c]pyridin-4-yl)amino]-2H-pyrazol-3-yl}cyclopentyl (prop-2-ylamino)methanoate] | 50 to 500 nM | 50 to 500 nM | ≤ 500 nM | < 50 nM | 500 to 1000 nM | < 50 nM |
| CC(C)NC(=O)O[C@@H]1CC[C@H](c2cc(Nc3ccc(Cl)c4c3CCCS4(=O)=O)n[nH]2)C1 [Example 58, (1R,3S)-3-(3-((8-chloro-1,1-dioxidothiochroman-5-yl)amino)-1H-pyrazol-5-yl)cyclopentyl isopropylcarbamate] | 50 to 500 nM | 500 to 1000 nM | ≤ 500 nM | < 50 nM | ≥ 1000 nM | < 50 nM |
| CC(C)NC(=O)O[C@@H]1CC[C@H](c2cc(Nc3cccc4c3CCCS4(=O)=O)n[nH]2)C1 [Example 59, (1R,3S)-3-(3-((1,1-dioxidothiochroman-5-yl)amino)-1H-pyrazol-5-yl)cyclopentyl isopropylcarbamate] | 50 to 500 nM | 500 to 1000 nM | ≤ 500 nM | < 50 nM | 500 to 1000 nM | < 50 nM |
| CC(C)NC(=O)O[C@@H]1CC[C@H](c2cc(Nc3ccc4c(c3F)CCS4(=O)=O)n[nH]2)C1 [Example 60, (1R,3S)-3-(3-((4-fluoro-1,1-dioxido-2,3-dihydrobenzo[b]thiophen-5-yl)amino)-1H-pyrazol-5-yl)cyclopentyl isopropylcarbamate] | 50 to 500 nM | > 1000 nM | ≤ 500 nM | < 50 nM | ≥ 1000 nM | < 50 nM |
| CC(C)NC(=O)O[C@@H]1CC[C@H](c2cc(Nc3cccc4c3CCNS4(=O)=O)n[nH]2)C1 [Example 61, (1R,3S)-3-(3-((1,1-dioxido-3,4-dihydro-2H-benzo[e][1,2]thiazin-5-yl)amino)-1H-pyrazol-5-yl)cyclopentyl isopropylcarbamate] | < 50 nM | 500 to 1000 nM | ≤ 500 nM | < 50 nM | ≤ 500 nM | < 50 nM |
| CC(C)NC(=O)O[C@@H]1CC[C@H](c2cc(Nc3cccc4c3CS(=O)(=O)CC4O)[nH]n2)C1 (stereo partly drawn) [Example 62, (1R,3S)-3-(5-((4-hydroxy-2,2-dioxidoisothiochroman-8-yl)amino)-1H-pyrazol-3-yl)cyclopentyl isopropylcarbamate] | 50 to 500 nM | > 1000 nM | ≤ 500 nM | < 50 nM | ≥ 1000 nM | < 50 nM |
| CC(C)NC(=O)O[C@@H]1CC[C@H](c2cc(Nc3cccc4c3CS(=O)(=O)CC4)n[nH]2)C1 [Example 63, (1R,3S)-3-(3-((2,2-dioxidoisothiochroman-8-yl)amino)-1H-pyrazol-5-yl)cyclopentyl isopropylcarbamate] | 50 to 500 nM | > 1000 nM | ≤ 500 nM | < 50 nM | ≥ 1000 nM | < 50 nM |
